Results: ChEMBL document CHEMBL1201862, “PubChem BioAssay data set” (2004)
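Five compound concentrations were applied to cells in 96-well plates for 48 hours; endpoints were derived by simple linear interpolation of the resulting dose-response curve. At the GI50, growth is halved.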 Activity calls are given as the source filed them. No stated cut-off is given here; in the data, active = GI50 up to about 1.1 µM and inactive = higher.

Legend:
Assay in all cases: NCI anticancer screen, dose series, 48 h
A549 = test system: A549
ACHN = test system: ACHN
HCT-116 = test system: HCT-116
HL-60 = test system: HL-60
HOP-62 = test system: HOP-62
HOP-92 = test system: HOP-92
K562 = test system: K562
MOLT-4 = test system: MOLT-4
NCI-H226 = test system: NCI-H226
NCI-H460 = test system: NCI-H460
OVCAR-4 = test system: OVCAR-4
SF-539 = test system: SF-539
SK-MEL-28 = test system: SK-MEL-28
SN12C = test system: SN12C
SNB-75 = test system: SNB-75

Measured: GI50

NC(=O)C(=O)C1C(=O)N(c2ccccc2)N=C1N (stereo not given)
inactive: A549 > 100 µM | ACHN 49.4 µM | HCT-116 > 100 µM | HL-60 > 100 µM | HOP-62 > 100 µM | HOP-92 > 100 µM | K562 > 100 µM | MOLT-4 > 100 µM | NCI-H226 > 100 µM | NCI-H460 > 100 µM | OVCAR-4 > 100 µM | SF-539 > 100 µM | SK-MEL-28 > 100 µM | SN12C > 100 µM | SNB-75 > 100 µM

O=S(=O)(N/N=C/c1cccc(/C=N/NS(=O)(=O)c2ccccc2)c1)c1ccccc1
inactive: A549 79.6 µM | ACHN 68.7 µM | HCT-116 83.9 µM | HL-60 63.4 µM | HOP-62 > 100 µM | HOP-92 38.9 µM | K562 60.4 µM | MOLT-4 84.5 µM | NCI-H226 > 100 µM | NCI-H460 68.7 µM | OVCAR-4 77.8 µM | SF-539 > 100 µM | SK-MEL-28 88.7 µM | SN12C > 100 µM | SNB-75 > 100 µM

COc1cc(/C=C2/C(=O)N(C(=O)OCC(C)C)C(Cc3cc(OC)c(OC)c(C)c3OC)C(=O)N2Cc2ccccc2)c(OC)c(C)c1OC (stereo not given)
inactive: A549 > 100 µM | ACHN > 100 µM | HCT-116 20.2 µM | HL-60 8.2 µM | HOP-62 54.7 µM | HOP-92 4.74 µM | K562 19.2 µM | MOLT-4 7.35 µM | NCI-H226 2.56 µM | NCI-H460 30.5 µM | OVCAR-4 > 100 µM | SF-539 > 100 µM | SK-MEL-28 > 100 µM | SN12C > 100 µM | SNB-75 > 100 µM

Cc1ccccc1NC(=O)C(=O)Cc1nc2ccccc2s1
inactive: A549 > 100 µM | ACHN > 100 µM | HCT-116 > 100 µM | HL-60 > 100 µM | HOP-62 > 100 µM | HOP-92 > 100 µM | K562 > 100 µM | MOLT-4 > 100 µM | NCI-H226 > 100 µM | NCI-H460 > 100 µM | OVCAR-4 > 100 µM | SF-539 > 100 µM | SK-MEL-28 > 100 µM | SN12C > 100 µM | SNB-75 > 100 µM

Cc1[nH]c2ccccc2c1-c1n[nH]c(=O)c2ccccc12
inactive: A549 24.6 µM | ACHN 25.7 µM | HCT-116 13.3 µM | HL-60 7.82 µM | HOP-62 6.56 µM | K562 5.25 µM | MOLT-4 20.5 µM | NCI-H226 18.7 µM | NCI-H460 22.9 µM | OVCAR-4 29.3 µM | SF-539 24.3 µM | SK-MEL-28 26.5 µM | SNB-75 15.3 µM

CC(C)OC(=O)c1cccnc1/C=N/O
inactive: A549 > 100 µM | ACHN > 100 µM | HCT-116 > 100 µM | HL-60 > 100 µM | HOP-62 > 100 µM | K562 > 100 µM | MOLT-4 > 100 µM | NCI-H226 > 100 µM | NCI-H460 84.1 µM | SF-539 > 100 µM | SN12C > 100 µM | SNB-75 > 100 µM

CN(C)CC1(C)CC/C(=C\c2ccc3c(c2)OCO3)C1=O (stereo not given)
inactive: A549 > 100 µM | ACHN > 100 µM | HCT-116 > 100 µM | HOP-62 > 100 µM | HOP-92 > 100 µM | K562 53.6 µM | MOLT-4 96.4 µM | NCI-H226 > 100 µM | NCI-H460 > 100 µM | OVCAR-4 > 100 µM | SF-539 > 100 µM | SK-MEL-28 > 100 µM | SN12C > 100 µM | SNB-75 > 100 µM

COC(=O)c1ccccc1N1C(=O)Cc2ccccc2C1=O
inactive: A549 > 100 µM | ACHN > 100 µM | HCT-116 > 10 µM | K562 > 100 µM | MOLT-4 > 100 µM | NCI-H226 > 100 µM | SF-539 75.3 µM | SK-MEL-28 > 100 µM | SN12C > 100 µM | SNB-75 21.6 µM

CCC1CCCCN1CC(C(C)=O)C(c1ccccc1)c1c(O)c2ccccc2oc1=O (stereo not given)
inactive: A549 > 100 µM | ACHN > 100 µM | HCT-116 > 100 µM | HL-60 76.4 µM | HOP-62 > 100 µM | K562 > 100 µM | MOLT-4 > 100 µM | NCI-H226 18 µM | NCI-H460 > 100 µM | OVCAR-4 > 100 µM | SF-539 > 100 µM | SK-MEL-28 > 100 µM | SN12C > 100 µM | SNB-75 6.87 µM

Clc1ccc2c(c1)-c1c3c(nn1-c1ccccc1)-c1ccccc1SC3O2 (stereo not given)
inactive: A549 > 100 µM | ACHN > 100 µM | HCT-116 > 100 µM | HL-60 79.4 µM | HOP-62 > 100 µM | HOP-92 35.7 µM | K562 75.3 µM | MOLT-4 > 100 µM | NCI-H460 > 100 µM | SF-539 > 100 µM | SK-MEL-28 > 100 µM | SNB-75 82.6 µM

CCOC(=O)/C=C1\CCCC12OCCO2
inactive: A549 > 100 µM | ACHN > 100 µM | HCT-116 54.1 µM | HL-60 > 100 µM | HOP-62 > 100 µM | K562 > 100 µM | MOLT-4 30.5 µM | NCI-H226 > 100 µM | NCI-H460 > 100 µM | OVCAR-4 > 100 µM | SF-539 > 100 µM | SK-MEL-28 > 100 µM | SN12C > 100 µM | SNB-75 77.3 µM

NC1CCC2(O)c3ccccc3C2C1 (stereo not given)
inactive: A549 > 100 µM | ACHN > 100 µM | HCT-116 > 100 µM | HL-60 > 100 µM | HOP-62 > 100 µM | K562 > 100 µM | MOLT-4 > 100 µM | NCI-H226 > 100 µM | NCI-H460 > 100 µM | OVCAR-4 > 100 µM | SK-MEL-28 > 100 µM | SN12C > 100 µM | SNB-75 > 100 µM

CSc1nc2c(nc(N)n2C2OC(COC(C)=O)C(OC(C)=O)C(OC(C)=O)C2OC(C)=O)c(=O)n1C (stereo not given)
inactive: A549 > 100 µM | ACHN > 100 µM | HCT-116 > 100 µM | HL-60 > 100 µM | HOP-62 > 100 µM | HOP-92 > 100 µM | K562 > 100 µM | MOLT-4 > 100 µM | NCI-H226 > 100 µM | NCI-H460 > 100 µM | OVCAR-4 > 100 µM | SF-539 > 100 µM | SN12C > 100 µM | SNB-75 > 100 µM

NC1CCCCC1.O=C(O)C1(P(=O)(O)O)CC1
inactive: A549 > 100 µM | ACHN > 100 µM | HCT-116 > 100 µM | HL-60 > 100 µM | HOP-62 > 100 µM | K562 > 100 µM | MOLT-4 > 100 µM | NCI-H460 > 100 µM | OVCAR-4 > 100 µM | SF-539 > 100 µM | SK-MEL-28 > 100 µM | SN12C > 100 µM | SNB-75 92.3 µM

CC(C)C(C(=O)O)N(CC1(O)OCC(O)C(O)C1O)N=O (stereo not given)
inactive: A549 > 100 µM | ACHN > 100 µM | HCT-116 > 100 µM | HL-60 > 100 µM | HOP-62 > 100 µM | HOP-92 > 100 µM | K562 > 100 µM | MOLT-4 > 100 µM | NCI-H460 > 100 µM | SF-539 > 100 µM | SK-MEL-28 > 100 µM | SNB-75 > 100 µM

CC1C=CC(C)C2(O)C(=O)NC(O)C12 (stereo not given)
inactive: A549 > 100 µM | ACHN > 100 µM | HCT-116 > 100 µM | HL-60 > 100 µM | HOP-62 > 100 µM | K562 > 100 µM | MOLT-4 > 100 µM | NCI-H226 > 100 µM | NCI-H460 > 100 µM | OVCAR-4 > 100 µM | SF-539 > 100 µM | SK-MEL-28 > 100 µM | SN12C > 100 µM | SNB-75 > 100 µM

CC(=O)OC1COC(n2c(=S)n(-c3ccc(C)cc3)c(=O)c3ccccc32)C(OC(C)=O)C1OC(C)=O (stereo not given)
inactive: A549 > 100 µM | ACHN > 100 µM | HCT-116 > 100 µM | HOP-62 > 100 µM | HOP-92 45.8 µM | MOLT-4 > 100 µM | NCI-H226 > 100 µM | NCI-H460 > 100 µM | OVCAR-4 > 100 µM | SF-539 > 100 µM | SK-MEL-28 > 100 µM | SN12C > 100 µM | SNB-75 63.2 µM

Cc1cc(N(CCC#N)S(=O)(=O)c2ccccc2)ccc1C=O
inactive: A549 > 100 µM | ACHN > 100 µM | HCT-116 > 100 µM | HL-60 > 100 µM | HOP-62 > 100 µM | K562 > 100 µM | MOLT-4 > 100 µM | NCI-H226 > 100 µM | NCI-H460 > 100 µM | OVCAR-4 > 100 µM | SF-539 > 100 µM | SK-MEL-28 > 100 µM | SN12C > 100 µM | SNB-75 > 100 µM

O=c1c(C(c2ccc([N+](=O)[O-])cc2)c2c(O)c3ccccc3n(-c3ccccc3)c2=O)c(O)c2ccccc2n1-c1ccccc1
inactive: A549 15.5 µM | ACHN 13.9 µM | HCT-116 18.7 µM | HOP-62 14.5 µM | HOP-92 9.18 µM | K562 16.6 µM | MOLT-4 2.7 µM | NCI-H226 24.1 µM | OVCAR-4 59.7 µM | SF-539 12.6 µM | SK-MEL-28 16.5 µM | SN12C 11.7 µM

S=C1ON=C(c2ccccc2)/C1=C/Nc1ccccc1
inactive: A549 > 100 µM | ACHN 47.1 µM | HL-60 > 100 µM | K562 9.98 µM | MOLT-4 > 100 µM | NCI-H460 > 100 µM | OVCAR-4 9.62 µM | SF-539 97.7 µM | SK-MEL-28 > 100 µM | SN12C > 100 µM | SNB-75 > 100 µM
